One molecule from patent US20070140979A1, “Method for accelerating the rate of mucociliary clearance” (BAYER AKTIENGESELLSCHAFT, priority 1998, published 2007) can be followed below.

Structures are written as SMILES.

The assay concerns the target Bovine chymotrypsin (Bos taurus, UniProt P00766). Description: Inhibition of chymotrypsin, Ki. As to conditions: Chymotrypsin (5 nM). The assay is classed as biochemical.

In the case of `CC[C@H](C)[C@H](N)C(=O)N[C@@H](Cc1c[nH]cn1)C(=O)N[C@@H](CC(=O)O)C(=O)N[C@@H](Cc1ccccc1)C(=O)N[C@H]1CSSC[C@@H](C(=O)N[C@@H](C)C(=O)N[C@H](C(=O)N[C@H](C(=O)O)C(C)C)[C@@H](C)O)NC(=O)[C@H](CCCCN)NC(=O)[C@H](CCCCN)NC(=O)[C@H](CC(C)C)NC(=O)[C@@H]2CSSC[C@@H]3NC(=O)[C@H](CO)NC(=O)CNC(=O)[C@H](CC(=O)O)NC(=O)[C@H]([C@@H](C)O)NC(=O)[C@H](C(C)C)NC(=O)[C@H](CC(N)=O)NC(=O)[C@H](Cc4ccc(O)cc4)NC(=O)[C@H](Cc4c[nH]c5ccccc45)NC(=O)[C@H](Cc4c[nH]c5ccccc45)NC(=O)[C@H](CCCNC(=N)N)NC(=O)[C@@H]4CCCN4C(=O)[C@H](CCSC)NC(=O)[C@H](CO)NC(=O)[C@H](C)NC(=O)[C@H](CCCNC(=N)N)NC(=O)[C@H](CSSC[C@H](NC(=O)CNC(=O)CNC(=O)[C@H](Cc4ccc(O)cc4)NC(=O)[C@H](C(C)C)NC(=O)[C@H](Cc4ccccc4)NC(=O)[C@H](CC(C)C)NC(=O)[C@H](CCC(N)=O)NC3=O)C(=O)N[C@@H](CC(=O)O)C(=O)NCC(=O)N[C@@H](CC(N)=O)C(=O)N[C@@H](CO)C(=O)N[C@@H](CC(N)=O)C(=O)N[C@@H](CC(N)=O)C(=O)N[C@@H](Cc3ccc(O)cc3)C(=O)N[C@@H](CC(C)C)C(=O)N[C@@H]([C@@H](C)O)C(=O)N[C@@H](CCCCN)C(=O)N[C@@H](CCC(=O)O)C(=O)N[C@@H](CCC(=O)O)C(=O)N2)NC(=O)[C@H](CCCNC(=N)N)NC(=O)CNC(=O)[C@H](C(C)C)NC(=O)[C@H](C(C)C)NC(=O)[C@H](CCCCN)NC(=O)[C@H](CO)NC(=O)[C@H](C(C)C)NC(=O)[C@H](CC(C)C)NC1=O` [bikunin (7-64)], the Ki (as a rule, the dissociation constant of the complex between target and ligand, obtained from inhibition or displacement) worked out at 6 nM.
